Measured values reported in patent publication US20220411367A1, “ARYLMETHYLENE HETEROCYCLIC COMPOUNDS AS KV1.3 POTASSIUM SHAKER CHANNEL BLOCKERS” (D. E. Shaw Research, LLC, priority 2019, published 2022).
Where two headings read alike, the source gives them in different places.

Columns and labels:
Kv1.3 potassium channel = biological target: T1, Kv1.3 potassium channel (Homo sapiens, UniProt P22001); experiment: Kv1.3 potassium channel blocker activity, automated whole-cell patch clamp (Patchliner); type: cell-based; conditions: CHO-K1 cells stably expressing Kv1.3; whole cell current inhibition; read-out: Kvl.3 IC50
T1 construct: expressed in transfected cells
Description: This assay is used to evaluate the disclosed compounds' activities as Kv1.3 potassium channel blockers.
CHO-K1 cells stably expressing Kv1.3 were grown in DMEM containing 10% heat-inactivated FBS, 1 mM Sodium Pyruvate, 2 mM L-Glutamine and G418 (500 μg/ml).
(§1) All compounds were dissolved in DMSO at 30 mM.
The currents were evoked by applying 100 ms depolarizing pulses from −90 mV (holding potential) to +40 mV were applied with 0.1 Hz frequency. […] 10 second breaks were used between pulse trains (see Table A below).
Data were sampled at 10 kHz without filtering. Passive leak currents were subtracted online using a P/4 procedure (HEKA Elektronik Dr. Schulze GmbH). […] Total compound incubation time before the next pulse train was not longer than 10 seconds. Peak current inhibition was observed during compound equilibration.

hERG channel = biological target: T2, hERG channel (Homo sapiens, UniProt Q12809); experiment: hERG electrophysiology, automated whole-cell patch clamp (Patchliner); type: cell-based
T2 construct: expressed in transfected cells
Description: as §1
The pulse frequency was 0.3 Hz.
Data were sampled at 10 kHz without filtering.

[1] = CHO-K1 cells stably expressing hERG, whole cell current inhibition, read-out: hERG IC50

T2 sequence (Q12809 whole entry): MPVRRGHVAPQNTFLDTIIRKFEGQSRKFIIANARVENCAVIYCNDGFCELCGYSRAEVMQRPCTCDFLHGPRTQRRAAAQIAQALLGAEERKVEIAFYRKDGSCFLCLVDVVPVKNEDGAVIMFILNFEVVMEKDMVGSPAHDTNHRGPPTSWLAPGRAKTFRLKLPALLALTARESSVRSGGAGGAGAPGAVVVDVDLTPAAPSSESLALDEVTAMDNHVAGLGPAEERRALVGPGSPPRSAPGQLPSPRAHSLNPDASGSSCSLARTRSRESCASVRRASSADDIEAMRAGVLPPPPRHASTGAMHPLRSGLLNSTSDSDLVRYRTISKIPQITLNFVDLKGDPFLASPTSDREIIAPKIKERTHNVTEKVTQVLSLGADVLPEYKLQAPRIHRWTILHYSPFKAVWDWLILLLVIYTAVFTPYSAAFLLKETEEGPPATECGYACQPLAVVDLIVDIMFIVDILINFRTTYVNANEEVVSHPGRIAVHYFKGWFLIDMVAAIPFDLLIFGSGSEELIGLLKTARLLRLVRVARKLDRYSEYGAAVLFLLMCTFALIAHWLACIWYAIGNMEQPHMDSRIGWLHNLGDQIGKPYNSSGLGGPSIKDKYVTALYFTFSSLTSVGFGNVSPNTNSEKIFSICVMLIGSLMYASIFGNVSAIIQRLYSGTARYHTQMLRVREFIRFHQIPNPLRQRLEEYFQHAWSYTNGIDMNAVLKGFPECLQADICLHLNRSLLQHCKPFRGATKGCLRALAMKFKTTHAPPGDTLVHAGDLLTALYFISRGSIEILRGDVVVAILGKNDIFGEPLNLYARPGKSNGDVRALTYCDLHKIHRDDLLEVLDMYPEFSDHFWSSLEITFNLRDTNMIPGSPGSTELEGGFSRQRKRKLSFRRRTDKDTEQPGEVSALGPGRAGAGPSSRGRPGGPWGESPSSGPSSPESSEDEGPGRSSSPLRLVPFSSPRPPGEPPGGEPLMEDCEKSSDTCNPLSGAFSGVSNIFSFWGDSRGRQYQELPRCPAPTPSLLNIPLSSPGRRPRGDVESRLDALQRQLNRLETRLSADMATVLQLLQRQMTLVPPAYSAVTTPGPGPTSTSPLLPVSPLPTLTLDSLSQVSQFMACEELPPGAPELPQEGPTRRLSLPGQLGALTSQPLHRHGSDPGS
T1 sequence (P22001 whole entry): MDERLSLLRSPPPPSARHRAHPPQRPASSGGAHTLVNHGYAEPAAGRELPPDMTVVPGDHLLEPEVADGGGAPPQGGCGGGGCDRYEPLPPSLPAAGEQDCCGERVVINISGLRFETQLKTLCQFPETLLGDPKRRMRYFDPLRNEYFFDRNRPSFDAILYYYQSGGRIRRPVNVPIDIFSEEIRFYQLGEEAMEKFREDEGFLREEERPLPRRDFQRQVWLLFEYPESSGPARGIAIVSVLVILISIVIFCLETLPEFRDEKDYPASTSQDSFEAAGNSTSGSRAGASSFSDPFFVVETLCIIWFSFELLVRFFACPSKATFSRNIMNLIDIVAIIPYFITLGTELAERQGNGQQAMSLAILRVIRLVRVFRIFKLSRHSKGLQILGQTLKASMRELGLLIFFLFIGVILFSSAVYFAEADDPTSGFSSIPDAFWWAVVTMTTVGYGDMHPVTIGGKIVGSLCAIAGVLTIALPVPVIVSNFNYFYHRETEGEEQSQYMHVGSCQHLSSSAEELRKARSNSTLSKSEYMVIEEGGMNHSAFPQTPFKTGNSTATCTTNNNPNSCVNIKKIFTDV

| Structure (SMILES) | IC50 (Kv1.3 potassium channel) | IC50 (hERG channel; [1]) | IC50 (hERG channel) |
| --- | --- | --- | --- |
| OCC1CCCN(Cc2cc(Cl)c(Cl)cc2O)CC1 (stereo not drawn) [Compound 27, 4,5-dichloro-2-[[4-(hydroxymethyl)azepan-1-yl]methyl]phenol] | < 1 µM | < 30 µM | – |
| CC(=O)NCC1(CO)CCN(Cc2cc(Cl)c(Cl)cc2O)CC1 [Compound 21, N-([1-[(4,5-dichloro-2-hydroxyphenyl)methyl]-4-(hydroxymethyl)piperidin-4-yl]methyl)acetamide] | < 1 µM | < 30 µM | – |
| NCC1(CO)CCN(Cc2cc(Cl)c(Cl)cc2O)CC1 [Compound 5, 2-[[4-(aminomethyl)-4-(hydroxymethyl)piperidin-1-yl]methyl]-4,5-dichlorophenol] | < 1 µM | < 30 µM | – |
| Oc1cc(Cl)c(Cl)cc1CN1CCC2(CC1)COC2 [Compound 51, 4,5-dichloro-2-[2-oxa-7-azaspiro [3.5]nonan-7-ylmethyl] phenol] | < 10 µM | < 30 µM | – |
| NCC1(N)CCN(Cc2cc(Cl)c(Cl)cc2O)CC1 [Compound 3, 2-((4-amino-4-(aminomethyl)piperidin-1-yl)methyl)-4,5-dichlorophenol] | < 1 µM | < 30 µM | – |
| Oc1cc(Cl)c(Cl)cc1CN1CCC2(CC1)COCC2O (stereo not drawn) [Compound 40] | < 1 µM | – | < 30 µM |
| NCC1(O)CCN(Cc2cc(Cl)c(Cl)cc2O)CC1 [Compound 9, 4-(aminomethyl)-1-[(4,5-dichloro-2-hydroxyphenyl)methyl]piperidin-4-ol trifluoroacetic acid] | < 1 µM | < 30 µM | – |
| Oc1cc(Cl)c(Cl)cc1CN1CCC2(CC1)OCCC2O (stereo not drawn) [Compound 26, 8-(4,5-dichloro-2-hydroxybenzyl)-1-oxa-8-azaspiro[4.5]decan-4-ol] | < 1 µM | < 30 µM | – |
| CC(=O)NC1(CO)CCN(Cc2cc(Cl)c(Cl)cc2O)CC1 [Compound 12, N-[1-[(4,5-dichloro-2-hydroxyphenyl)methyl]-4-(hydroxymethyl)piperidin-4-yl]acetamide] | < 1 µM | > 30 µM | – |
| Oc1cc(Cl)c(Cl)cc1CN1CCC2(CCO2)CC1 [Compound 57, 4,5-dichloro-2-[1-oxa-7-azaspiro[3.5]nonan-7-ylmethyl]phenol] | < 10 µM | < 30 µM | – |
| NC1(CO)CCN(Cc2cc(Cl)c(Cl)cc2O)CC1 [Compound 14, 2-[[4-amino-4-(hydroxymethyl)piperidin-1-yl]methyl]-4,5-dichlorophenol] | < 1 µM | < 30 µM | – |

Second part, led by results:

| IC50 (Kv1.3 potassium channel) | Structure (SMILES) | IC50 (hERG channel; [1]) | IC50 (hERG channel) |
| --- | --- | --- | --- |
| < 10 µM | O=C(N1CCOCC1)N1CCN(Cc2cc(Cl)c(Cl)cc2O)CC1 [Compound 58, (4-(4,5-dichloro-2-hydroxybenzyl)piperazin-1-yl)(morpholino) methanone] | < 30 µM | – |
| < 10 µM | OCC1CCN(Cc2cc(Cl)c(Cl)cc2O)C1 (stereo not drawn) [Compound 44, 4,5-dichloro-2-[[3-(hydroxymethyl)pyrrolidin-1-yl]methyl]phenol] | < 30 µM | – |
| < 10 µM | Oc1cc(Cl)c(Cl)cc1CN1CCC(c2ccn[nH]2)CC1 [Compound 30, 2-((4-(1H-pyrazol-5-yl)piperidin-1-yl)methyl)-4,5-dichlorophenol] | < 30 µM | – |
| < 10 µM | N#CC1(CO)CCN(Cc2cc(Cl)c(Cl)cc2O)CC1 [Compound 54, 1-[(4,5-dichloro-2-hydroxyphenyl)methyl]-4-(hydroxymethyl)piperidine-4-carbonitrile] | < 30 µM | – |
| < 10 µM | CC1(CO)CCN(Cc2cc(Cl)c(Cl)cc2O)CC1 [Compound 53, 4,5-dichloro-2-[[4-(hydroxymethyl)-4-methylpiperidin-1-yl]methyl] phenol] | < 30 µM | – |
| < 10 µM | OCC1(O)CCN(Cc2cc(Cl)c(Cl)cc2O)CC1 [Compound 48, 1-[(4,5-dichloro-2-hydroxyphenyl)methyl]-4-(hydroxymethyl)piperidin-4-ol] | < 30 µM | – |
| < 10 µM | Oc1cc(Cl)c(Cl)cc1CN1CCC(O)CC1 [Compound 55, 1-[(4,5-dichloro-2-hydroxyphenyl)methyl] piperidin-4-ol] | < 30 µM | – |
| < 1 µM | O=C(C1CCN(Cc2cc(Br)c(Br)cc2O)CC1)N1CCCC1 [Compound 63, (1-(4,5-dibromo-2-hydroxybenzyl)piperidin-4-yl)(pyrrolidin-1-yl)methanone] | < 30 µM | – |
| < 10 µM | CC1CCN(Cc2cc(Cl)c(Cl)cc2O)CC1 [Compound 64, 4,5-dichloro-2-((4-methylpiperidin-1-yl)methyl)phenol] | < 30 µM | – |
| < 10 µM | OCC1CCCN(Cc2cc(Cl)c(Cl)cc2O)C1 (stereo not drawn) [Compound 45, 4,5-dichloro-2-[[3-(hydroxymethyl)piperidin-1-yl]methyl]phenol] | < 30 µM | – |
| < 10 µM | COCC1CCN(Cc2cc(Cl)c(Cl)cc2O)CC1 [Compound 56, 4,5-dichloro-2-[[4-(methoxymethyl)piperidin-1-yl]methyl]phenol] | < 30 µM | – |
| < 10 µM | CC(=O)N1CCN(Cc2cc(Cl)c(Cl)cc2O)CC1 [Compound 49, 1-[4-[(4,5-dichloro-2-hydroxyphenyl)methyl]piperazin-1-yl]ethan-1-one] | < 30 µM | – |
| < 1 µM | C[C@H]1C[C@@H](CO)CCN1Cc1cc(Cl)c(Cl)cc1O (relative stereo) [Compound 29, 4,5-dichloro-2-(((2S,4S)-rel-4-(hydroxymethyl)-2-methylpiperidin-1-yl)methyl)phenol] | < 30 µM | – |
